For one experiment, the system named is KO-52 cells. In words: Proliferation assay (spheroid growth, 8 days), KO-52 control cell line. Particulars: read-out: spheroid assay_OneTime KO-52 IC50. The format is cell-based, human. The protocol: (§1) The anti-proliferative effect of menin/MLL protein/protein interaction inhibitor test compounds was assessed in human leukemia cell lines. The cell line MOLM14 harbors a MLL translocation and expresses the MLL fusion protein MLL-AF9, respectively, as well as the wildtype protein from the second allele. OCI-AML3 cells that carry the NPM1c gene mutation were also tested. […] KO-52 was used as a control cell line containing two MLL (KMT2A) wildtype alleles in order to exclude compounds that display general cytotoxic effects.
(§2) KO-52 and OCI-AML3 cell lines were propagated in alpha-MEM (Sigma Aldrich) supplemented with 20% heat-inactivated fetal bovine serum (HyClone), 2 mM L-glutamine (Sigma Aldrich) and 50 μg/ml gentamycin (Gibco).
(§3) In order to assess the anti-proliferative effects, 200 MOLM14 cells, 200 OCI-AML3 cells or 300 KO-52 cells were seeded in 200 μl media per well in […] round bottom, ultra-low attachment plates (Costar, catalogue number 7007). Cell seeding numbers were chosen based on growth curves to ensure linear growth throughout the experiment. Test compounds were added at different concentrations and the DMSO content was normalized to 0.3%. Cells were incubated for 8 days at 37° C. and 5% CO2. Spheroid like growth was measured in real-time by live-cell imaging (IncuCyteZOOM, Essenbio, 4× objective) acquiring images at day 8. Confluence (%) as a measure of spheroid size was determined using an integrated analysis tool.
(§4) In order to determine the effect of the test compounds over time, the confluence in each well as a measure of spheroid size, was calculated. Confluence of the highest dose of a reference compound was used as baseline for the LC (Low control) and the confluence of DMSO treated cells was used as 0% cytotoxicity (High Control, HC).
(§5) GraphPad Prism(version 7.00) was used to calculate the IC50. Dose-response equation was used for the plot of % Effect vs Log 10 compound concentration with a variable slope and fixing the maximum to 100% and the minimum to 0%.

In the next experiment the test system is MOLM14 cells. In words: Proliferation assay (spheroid growth, 8 days), MOLM14.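 Note: spheroid size read as confluence by live-cell imaging, compounds added at a range of concentrations with 0.3% DMSO, DMSO-treated wells = 0%, highest reference dose = low control.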 Type of experiment: cell-based, human. The settings on record: MOLM14, 8 days, read-out: spheroid assay_OneTime MOLM14 IC50.
Experiment [1] has as its target menin/MLL (terbium chelate-labeled menin, FITC-MBM1 peptide) (Homo sapiens (Human), UniProt O00255). Briefly: Menin/MLL homogenous time-resolved fluorescence (HTRF) assay.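 Note: IC50 from percent inhibition of HTRF signal, normalized between wells without competitor and wells with a saturating competitor that displaces FITC-MBM1 from His-tagged menin.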 The format is binding. In general terms: Time-resolved FRET reads energy transfer from a long-lived donor to a nearby acceptor.
The test system of a further experiment is MEIS1 mRNA. In words: MEIS1 mRNA expression assay (Quantigene Singleplex) in MOLM14 cells.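 Note: MEIS1 transcript levels read by probe hybridization and normalized to RPL28 mRNA, with IC50 fitted to fold changes across a rising compound concentration series.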 The settings on record: 48 hours incubation. Type of experiment: cell-based, human.
The test system of a further experiment is OCI-AML3 cells. Briefly: Proliferation assay (spheroid growth, 8 days), OCI-AML3. Type of experiment: cell-based, human. The settings on record: Homo sapiens, OCI-AML-3, […], OCI-AML3, 8 days. The protocol:
as §1, §2, §3, §4, §5

Setting [2] is: read-out: HTRF-30 min incubation IC50, 30 min incubation.
[3] abbreviates: HTRF-30 min incubation IC50, 30 min incubation.

Structures are written as SMILES. Where a name gives a salt, the structure may show the parent alone. Read-outs that look alike come from different tables or passages of the source.

One may read the IC50 as the midpoint of a concentration-inhibition curve.

menin/MLL (terbium chelate-labeled menin, FITC-MBM1 peptide), sequence (O00255 other isoform, or with tags, fused parts or gaps): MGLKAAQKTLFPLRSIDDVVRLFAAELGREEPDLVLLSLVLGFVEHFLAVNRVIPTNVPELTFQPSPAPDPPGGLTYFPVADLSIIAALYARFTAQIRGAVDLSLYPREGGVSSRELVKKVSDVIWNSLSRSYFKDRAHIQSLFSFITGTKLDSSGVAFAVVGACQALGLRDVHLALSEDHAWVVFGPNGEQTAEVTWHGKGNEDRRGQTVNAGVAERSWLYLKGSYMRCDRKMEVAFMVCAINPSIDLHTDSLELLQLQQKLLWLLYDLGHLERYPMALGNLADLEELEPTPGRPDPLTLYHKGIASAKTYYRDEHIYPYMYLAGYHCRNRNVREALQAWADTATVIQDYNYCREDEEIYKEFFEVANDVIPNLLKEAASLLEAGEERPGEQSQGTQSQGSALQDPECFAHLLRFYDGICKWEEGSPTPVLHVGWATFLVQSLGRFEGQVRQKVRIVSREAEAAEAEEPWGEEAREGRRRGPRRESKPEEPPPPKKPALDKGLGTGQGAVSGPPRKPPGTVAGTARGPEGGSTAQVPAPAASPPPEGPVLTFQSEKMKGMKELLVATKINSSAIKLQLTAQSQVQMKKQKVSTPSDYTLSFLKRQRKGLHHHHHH

For `CCN(C(=O)c1cc(F)ccc1Oc1nncnc1N1CCC2(C1)CN([C@@H](CCCO)C(C)C)C2)C(C)C` (single isomer, unassigned) [Compound 48, (*S)—N-ethyl-5-fluoro-2-((5-(2-(6-hydroxy-2-methylhexan-3-yl)-2,6-diazaspiro[3.4]octan-6-yl)-1,2,4-triazin-6-yl)oxy)-N-isopropylbenzamide], the IC50 in the experiment with KO-52 cells was above 15000 nM; with MOLM14 cells, above 940 nM; in experiment [1] (setting [2]), 70.4 nM; in the experiment with MEIS1 mRNA, above 1000 nM.

For the molecule `CCN(C(=O)c1cc(F)ccc1Oc1nncnc1N1CCC2(C1)CN([C@H](CCCN(C)CC(C)OC)C(C)C)C2)C(C)C` (single isomer, unassigned) [Compound 254, oxalate], the IC50 was above 15000 nM with KO-52 cells (Homo sapiens, […]); 590 nM in the experiment with MOLM14 cells (Homo sapiens, MOLM-14, […]); 4.16 nM in experiment [1] (setting [3]); 4690 nM in the experiment on OCI-AML3 cells.

Consider `CCN(C(=O)c1cc(F)ccc1Oc1nncnc1N1CCC2(C1)CN([C@H](CCCN(C)CC(F)(F)F)C(C)C)C2)C(C)C` [Compound 21, (R)-N-ethyl-5-fluoro-N-isopropyl-2-((5-(2-(2-methyl-6-(methyl(2,2,2-trifluormethyl)amino)hexan-3-yl)-2,6-diazaspiro[3.4]octan-6-yl)-1,2,4-triazin-6-yl)oxy)benzamide], for which the IC50 with KO-52 cells (Homo sapiens, […]) was above 15000 nM; in the experiment on MOLM14 cells (Homo sapiens, MOLM-14, […]), above 940 nM; in experiment [1] (setting [3]) it was 10.4 nM; in the experiment with MEIS1 mRNA (Homo sapiens, MOLM-14, 48 h), above 1000 nM.

Regarding `CCN(C(=O)c1cc(F)ccc1Oc1nncnc1N1CCC2(C1)CN([C@@H](CCC(C)(C)N(C)C)C(C)C)C2)C(C)C` (single isomer, unassigned) [Compound 33, (*S)-2-((5-(2-(6-(dimethylamino)-2,6-dimethylheptan-3-yl)-2,6-diazaspiro[3.4]octan-6-yl)-1,2,4-triazin-6-yl)oxy)-N-ethyl-5-fluoro-N-isopropylbenzamide], the IC50 was above 15000 nM in the experiment with KO-52 cells (Homo sapiens, […]); above 940 nM with MOLM14 cells (Homo sapiens, MOLM-14, […]); 2.84 nM in experiment [1] (setting [3]); above 1000 nM in the experiment on MEIS1 mRNA (Homo sapiens, MOLM-14, 48 h).

`CCN(C(=O)c1cc(F)ccc1Oc1nncnc1N1CCC2(C1)CN([C@H](CCCN(C)CCOC)C(C)C)C2)C(C)C` [Compound 27, (R)-N-ethyl-5-fluoro-N-isopropyl-2-((5-(2-(6-((2-methoxyethyl)(methyl)amino)-2-methylhexan-3-yl)-2,6-diazaspiro[3.4]octan-6-yl)-1,2,4-triazin-6-yl)oxy)benzamide]: the IC50 in the experiment with KO-52 cells (Homo sapiens, […]) is 6850 nM; in the experiment with OCI-AML3 cells, 91 nM.

Take `CCN(C(=O)c1cc(F)ccc1Oc1nncnc1N1CCC2(C1)CN([C@@H](CCCN(C)C)C(C)C)C2)C(C)C` [Compound 5, (S)-2-((5-(2-(6-(dimethylamino)-2-methylhexan-3-yl)-2,6-diazaspiro[3.4]octan-6-yl)-1,2,4-triazin-6-yl)oxy)-N-ethyl-5-fluoro-N-isopropylbenzamide formate]: the IC50 in the experiment with KO-52 cells (Homo sapiens, […]) is above 15000 nM; with MOLM14 cells (Homo sapiens, MOLM-14, […]), 840 nM; in experiment [1] (setting [3]), 2.26 nM; with MEIS1 mRNA (Homo sapiens, MOLM-14, 48 h) it was around 990 nM.

Take `CCN(C(=O)c1cc(F)ccc1Oc1nncnc1N1CCC2(C1)CN([C@@H](CCCN(C)CCOC)C(C)C)C2)C(C)C` [Compound 28, (S)—N-ethyl-5-fluoro-N-isopropyl-2-((5-(2-(6-((2-methoxyethyl)(methyl)amino)-2-methylhexan-3-yl)-2,6-diazaspiro[3.4]octan-6-yl)-1,2,4-triazin-6-yl)oxy)benzamide]: the IC50 in the experiment with KO-52 cells (Homo sapiens, […]) is above 15000 nM; in the experiment on MOLM14 cells (Homo sapiens, MOLM-14, […]), 600 nM; in the experiment on OCI-AML3 cells, 1360 nM.

In the case of `CCN(C(=O)c1cc(F)ccc1Oc1nncnc1N1CCC2(C1)CN(C(CCNC(C)=O)C(C)C)C2)C(C)C` (stereo not drawn) [Compound 29], the IC50 in the experiment with KO-52 cells (Homo sapiens, […]) is above 15000 nM; in the experiment with MOLM14 cells (Homo sapiens, MOLM-14, […]) it was 970 nM; in experiment [1] (setting [3]) it was 2.42 nM; with MEIS1 mRNA (Homo sapiens, MOLM-14, 48 h) it was around 2250 nM.

In the case of `CCN(C(=O)c1cc(F)ccc1Oc1nncnc1N1CCC2(C1)CN([C@@H](CN)C(C)C)C2)C(C)C` (single isomer, unassigned) [Compound 25, (*R)-2-((5-(2-(1-amino-3-methylbutan-2-yl)-2,6-diazaspiro[3.4]octan-6-yl)-1,2,4-triazin-6-yl)oxy)-N-ethyl-5-fluoro-N-isopropylbenzamide], the IC50 in the experiment with KO-52 cells (Homo sapiens, […]) is above 15000 nM; in the experiment on MOLM14 cells (Homo sapiens, MOLM-14, […]), above 3750 nM; in experiment [1] (setting [3]) it was 10.5 nM; in the experiment on MEIS1 mRNA (Homo sapiens, MOLM-14, 48 h), around 1200 nM.

Consider `CCN(C(=O)c1cc(F)ccc1Oc1nncnc1N1CCC2(C1)CN([C@H](CCCN(C)CC(F)F)C(C)C)C2)C(C)C` [Compound 16, (R)-2-((5-(2-(6-((2,2-difluoroethyl)(methyl)amino)-2-methylhexan-3-yl)-2,6-diazaspiro[3.4]octan-6-yl)-1,2,4-triazin-6-yl)oxy)-N-ethyl-5-fluoro-N-isopropylbenzamide], for which the IC50 is 10500 nM in the experiment on KO-52 cells (Homo sapiens, […]); 370 nM in the experiment with MOLM14 cells (Homo sapiens, MOLM-14, […]); 1.85 nM in experiment [1] (setting [3]); around 670 nM in the experiment on MEIS1 mRNA (Homo sapiens, MOLM-14, 48 h).

As to `CCN(C(=O)c1cc(F)ccc1Oc1nncnc1N1CCC2(C1)CN([C@@H](CCC(C)(C)NC)C(C)C)C2)C(C)C` (single isomer, unassigned) [Compound 36, (*S)-2-((5-(2-(2,6-dimethyl-6-(methylamino)heptan-3-yl)-2,6-diazaspiro[3.4]octan-6-yl)-1,2,4-triazin-6-yl)oxy)-N-ethyl-5-fluoro-N-isopropylbenzamide hydrochloride], the IC50 in the experiment with KO-52 cells (Homo sapiens, […]) was above 15000 nM; with MOLM14 cells (Homo sapiens, MOLM-14, […]), above 940 nM; in experiment [1] (setting [3]) it was 2.6 nM; in the experiment with MEIS1 mRNA (Homo sapiens, MOLM-14, 48 h) it was above 1000 nM.

Regarding `CCN(C(=O)c1cc(F)ccc1Oc1nncnc1N1CCC2(C1)CN([C@@H](CCC(C)(C)N)C(C)C)C2)C(C)C` (single isomer, unassigned) [Compound 31, (*S)-2-((5-(2-(6-amino-2,6-dimethylheptan-3-yl)-2,6-diazaspiro[3.4]octan-6-yl)-1,2,4-triazin-6-yl)oxy)-N-ethyl-5-fluoro-N-isopropylbenzamide], the IC50 in the experiment with KO-52 cells (Homo sapiens, […]) was above 15000 nM; with MOLM14 cells (Homo sapiens, MOLM-14, […]) it was above 940 nM; in experiment [1] (setting [3]), 2.28 nM; with MEIS1 mRNA (Homo sapiens, MOLM-14, 48 h), above 1000 nM.

For `CCN(C(=O)c1cc(F)ccc1Oc1nnc(Cl)nc1N1CCC2(C1)CN([C@H](CCCN(C)CCOC)C(C)C)C2)C(C)C` [Compound 394, (R)-2-((3-chloro-5-(2-(6-((2-methoxyethyl)(methyl)amino)-2-methylhexan-3-yl)-2,6-diazaspiro[3.4]octan-6-yl)-1,2,4-triazin-6-yl)oxy)-N-ethyl-5-fluoro-N-isopropylbenzamide fumarate], the IC50 is above 15000 nM with KO-52 cells (Homo sapiens, […]); 110 nM in the experiment with MOLM14 cells (Homo sapiens, MOLM-14, […]); 330 nM with OCI-AML3 cells.

For the molecule `CNC(=O)CC[C@H](C(C)C)N1CC2(CCN(c3ncnnc3Oc3ccc(F)cc3-c3cncnc3C3CC3)C2)C1` (single isomer, unassigned) [Compound 46, (*R)-4-(6-(6-(2-(4-cyclopropylpyrimidin-5-yl)-4-fluorophenoxy)-1,2,4-triazin-5-yl)-2,6-diazaspiro[3.4]octan-2-yl)-N,5-dimethylhexanamide], the IC50 was above 15000 nM in the experiment with KO-52 cells, above 3750 nM in the experiment with MOLM14 cells, 59.7 nM in experiment [1] (setting [2]) and above 2500 nM in the experiment on MEIS1 mRNA.

Turning to `CC(C)[C@H](CCC(C)(C)N)N1CC2(CCN(c3ncnnc3Oc3ccc(F)cc3-c3cncnc3C3CC3)C2)C1` (single isomer, unassigned) [Compound 38, (*S)-5-(6-(6-(2-(4-cyclopropylpyrimidin-5-yl)-4-fluorophenoxy)-1,2,4-triazin-5-yl)-2,6-diazaspiro[3.4]octan-2-yl)-2,6-dimethylheptan-2-amine], the IC50 is above 15000 nM in the experiment with KO-52 cells (Homo sapiens, […]); 520 nM in the experiment with MOLM14 cells (Homo sapiens, MOLM-14, […]); 1.16 nM in experiment [1] (setting [3]); around 1100 nM in the experiment on MEIS1 mRNA (Homo sapiens, MOLM-14, 48 h).

As for `CCN(C(=O)c1cc(F)ccc1Oc1nncnc1N1CCC2(C1)CN([C@@H](CCCN)C(C)C)C2)C(C)C` [Compound 2, (S)-2-((5-(2-(6-amino-2-methylhexan-3-yl)-2,6-diazaspiro[3.4]octan-6-yl)-1,2,4-triazin-6-yl)oxy)-N-ethyl-5-fluoro-N-isopropylbenzamide formate], the IC50 is above 15000 nM in the experiment on KO-52 cells (Homo sapiens, […]); 2220 nM with MOLM14 cells (Homo sapiens, MOLM-14, […]); 3.31 nM in experiment [1] (setting [3]); above 2500 nM with MEIS1 mRNA (Homo sapiens, MOLM-14, 48 h).
